According to patent US9447055B1, “α-amino esters of hydroxypropylthiazolidine carboxamide derivative and salt form, crystal polymorph thereof” (Merck Serono S.A., priority 2016, dated 2016):
Converted amounts (≈) assume the structure as drawn. “Also recorded” adds a separate entry of the source.

Key:
[1] = target: prostaglandin E receptor 2 (EP2) (Homo sapiens (Human), UniProt P43116); conditions: FP over EP2
Protocol: (§1) Selectivity of compound II was tested against all eight prostaglandin receptor subtypes.

[2] = tested on: other prostaglandin receptor subtypes; conditions: FP over other subtypes
Protocol: as §1

[3] = target: human FP (Homo sapiens (Human), UniProt P43088); assay: IP3 synthesis in FP-transfected HEK293-EBNA cells; format: cell-based
Protocol: The functional characterization of compound II on human FP was performed in transfected HEK293-EBNA cells.

[4] = solubility in water and simulated intestinal media; format: physicochemical
[5] = tested on: Caco-2 cell monolayer; assay: bidirectional permeability across Caco-2 cell monolayers; format: in vitro ADME, human; conditions: for efflux: bi-directional
Protocol: (§2) Compound I was dissolved in HBSS buffer (1% DMSO final concentration) at the concentrations of 1.5, 3 and 6 μM. Each concentration/sampling time was run in duplicate well. The test was performed in a gradient pH: the apical compartment (mucosal) was at pH 6.5, the basolateral compartment (serosal) was at pH 7.4.
(§3) Apical to basolateral (A→B, mucosal to serosal) transport: 200 μL of each concentration of compound I was added to the apical compartment and 400 μL of HBSS was added to the basolateral compartment. The plates were incubated at 37° C. An aliquot of the basolateral compartment was sampled after 60 and 120 min (t=60 and t=120). An aliquot of the apical compartment was sampled at the starting time (t=0) and after 120 min. (t=120).
(§4) Basolateral to apical (B→A, serosal to mucosal) transport: 400 μL of each concentration of compound I was added to the basolateral compartment and 200 μL of HBSS was added to the apical compartment. The plates were incubated at 37° C. An aliquot of the apical compartment was sampled after 60 and 120 min (t=60 and t=120). An aliquot of the basolateral compartment was sampled at the starting time (t=0) and after 120 min. (t=120). All samples were analyzed by LC/MS monitoring both compound I and the appearance of compound II.
as §2, with “II” for “I”
as §3, with “II” for “I”
as §4, with “of compound II was added” for “of compound I was added”, “LC/MS monitoring compound II.” for “LC/MS monitoring both compound I and the appearance of compound II.”

[6] = tested on: panel of 50 receptors, channels and enzymes binding sites; conditions: 1 μM
[7] = target: human FP-R (Homo sapiens (Human), UniProt P43088); assay: competitive radioligand binding, recombinant FP receptor expressed in HEK293-EBNA cells
Protocol: The potency of inhibition of compound I and compound II on prostaglandin F2α receptor was assessed by analyzing the affinity of these compounds for recombinant FP receptor expressed in HEK293-EBNA cells.

[8] = tested on: spontaneous uterine contractions; assay: spontaneous uterine activity in late-term anaesthetized pregnant rat; format: in vivo; conditions: late-term pregnant rats; for reduction of spontaneous uterine contractions: i.v. or oral, maximal effect at 30 mg/kg i.v. and 60 mg/kg oral; for intravenous activity compared with atosiban: i.v.
Text: The tocolytic effects of compound I and compound II were investigated in a model of spontaneous uterine activity in late-term (19-21 days of gestation) anaesthetized pregnant rat (Kawarabayashi et al. Am. J. Obstet. Gynecol. 175:1348-1355 (1996) and Shinkai et al. J. Pharm. Pharmacol. 52:1417-1423 (2000)). Briefly, late-term pregnant female rats were anaesthetized with urethane. One pregnant uterine horn was exposed and a polyethylene catheter bearing on the tip a latex balloon filled with saline was inserted into the lumen. The catheter was connected to an amplifying/recording system via a pressure-transducer. […] For the i.v. administration the uterine contractile activity was quantified by calculating the AUC during the 10 min injection period. The percent variation of the AUC values relative to the spontaneous uterine response observed after each compound administration was calculated in comparison to the value recorded before the first dose-administration (basal value). The effect of compound I or compound II was evaluated by comparing pre- and post-treatment luminal uterine pressure values. For the oral administration the same computation procedure was applied at different time points after treatment. Statistical differences between treatment groups at each time-point were determined by using one-way ANOVA followed by Tukey test. Both compounds intravenously or orally administered were able to markedly reduce spontaneous uterine contractions by around 40-50% (maximal effect obtained at 30 mg/kg by i.v. route and 60 mg/kg by oral route).

[9] = stability in HBSS transport buffer; format: in vitro ADME; conditions: 37° C., 60 and 120 minutes
Protocol: Stability of both compound I and compound II was assessed during the test. These compounds were dissolved in HBSS buffer (1% DMSO final concentration) at the concentrations of 1.5, 3 and 6 μM. An aliquot of each solution was sampled at time zero (t=0) to assess the starting concentrations of the compounds. The solutions were incubated at 37° C. for the duration of the transport experiment. An aliquot of each solution was sampled at the end of experiment (t=120) to assess the final concentrations of compound I and compound II. Samples were analyzed by LC-MS.

[10] = non-specific binding to cell-free transwells; format: in vitro ADME
Protocol: Non-specific binding and recovery was assessed across cell-free transwells.
Compound I was tested at 1.5, 3 and 6 μM in duplicate cell-free transwells. The test was performed in a pH gradient between the apical and the basolateral compartment. […] The following sampling times were performed: 60 and 120 min for the basolateral compartment (receiver) and 120 min for the apical compartment (donor). Samples obtained were analyzed by LC-MS, both compound I and compound II were monitored in order to assess percent of recovery.

[11] = target: PepT1 transporter (Homo sapiens (Human), UniProt P46059); assay: mucosal-to-serosal Caco-2 transport after Gly-Sar pre-treatment; format: in vitro ADME; conditions: 10 mM Gly-Sar pre-treatment; for compound I passage to receiving compartment after Gly-Sar pre-treatment: A→B
Protocol: The differentiated cells were pre-treated for 30 min. with 10 mM of Gly-Sar in order to block the active transporter PepT1.
as §2
Apical to basolateral (A→B, mucosal to serosal) transport: 200 μL of each concentration of compound I was added to the apical compartment and 400 μL of HBSS was added to the basolateral compartment. The plates were incubated at 37° C. An aliquot of the basolateral compartment was sampled after 60 and 120 min (t=60 and t=120). An aliquot of the apical compartment was sampled at the starting time (t=0) and after 120 min. (t=120). All samples were analyzed by LC/MS monitoring both compound I and the appearance of compound II.

[12] = in vivo conversion of compound I to compound II; conditions: following gastrointestinal tract administration
Protocol: The invention is based on the discovery that compound I ((3S)-3-({[(2S)-3-(biphenyl-4-ylsulfonyl)-1,3-thiazolidin-2-yl]carbonyl}-amino)-3-(4-fluorophenyl)propyl L-valinate, represented by formula I, below) and salts thereof are converted in vivo to 3-([1,1′-biphenyl]-4-ylsulfonyl)-N-[1-(4-fluorophenyl)-3-hydroxypropyl]-1,3-thiazolidine-2-carboxamide (represented by formula II, below).
Compound II is a competitive and reversible prostaglandin F2α receptor antagonist (human FP2α receptor Ki=6 nM) that is under development for the management of pre-term labor by inhibition of premature uterine contractions.

[13] = aqueous solubility of compound I salts; format: physicochemical; conditions: water
[14] = moisture sorption/desorption and relative humidity stability of salts; format: physicochemical; conditions: for hygroscopicity: moisture balance data, hydrochloride
Protocol: Moisture sorption/desorption (MB) data were collected on a VTI SGA-100 Vapor Sorption Analyzer. Sorption and desorption data were collected over a range of 5% to 95% relative humidity (RH) at 10% RH intervals under a nitrogen purge. Samples were not dried prior to analysis. Equilibrium criteria used for analysis were less than 0.0100% weight change in 5 minutes, with a maximum equilibration time of 3 hours if the weight criterion was not met. Data were not corrected for the initial moisture content of the samples. NaCl and PVP were used as calibration standards.

[15] = FaSSIF pH 6.5, read-out: Solubility in FaSSIF
[16] = FeSSIF pH 5.0, read-out: Solubility in FeSSIF
[17] = water, read-out: Solubility in water

human FP, sequence (P43088 whole entry): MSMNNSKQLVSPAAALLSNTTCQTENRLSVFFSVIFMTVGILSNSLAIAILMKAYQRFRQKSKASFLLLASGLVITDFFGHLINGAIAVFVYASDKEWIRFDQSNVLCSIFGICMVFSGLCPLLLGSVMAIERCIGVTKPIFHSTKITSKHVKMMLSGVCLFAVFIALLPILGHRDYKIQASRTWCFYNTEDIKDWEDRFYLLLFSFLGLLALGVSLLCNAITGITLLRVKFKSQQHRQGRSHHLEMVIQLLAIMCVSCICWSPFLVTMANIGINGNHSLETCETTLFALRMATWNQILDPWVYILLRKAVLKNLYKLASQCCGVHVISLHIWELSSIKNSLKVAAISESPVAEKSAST
human FP-R, sequence (P43088 whole entry): as above
prostaglandin E receptor 2 (EP2), sequence (P43116 whole entry): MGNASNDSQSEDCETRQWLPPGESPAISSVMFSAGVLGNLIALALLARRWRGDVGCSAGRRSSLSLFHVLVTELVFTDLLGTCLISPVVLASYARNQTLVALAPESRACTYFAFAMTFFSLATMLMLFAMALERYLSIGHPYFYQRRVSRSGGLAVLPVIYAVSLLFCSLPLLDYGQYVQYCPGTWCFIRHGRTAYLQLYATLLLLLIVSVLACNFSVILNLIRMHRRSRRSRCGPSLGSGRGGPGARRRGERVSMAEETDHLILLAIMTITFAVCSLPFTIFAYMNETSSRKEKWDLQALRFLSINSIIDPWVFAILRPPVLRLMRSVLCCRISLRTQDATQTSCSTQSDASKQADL

O=C(N[C@@H](CCO)c1ccc(F)cc1)[C@@H]1SCCN1S(=O)(=O)c1ccc(-c2ccccc2)cc1 (stereo in doubt) [Compound II, 3-([1,1′-biphenyl]-4-ylsulfonyl)-N-[1-(4-fluorophenyl)-3-hydroxypropyl]-1,3-thiazolidine-2-carboxamide]
Selectivity versus prostaglandin E receptor 2 (EP2) [1]: approximately 10 fold
Selectivity against other prostaglandin receptors [2]: higher than 100 fold
IC50 ([3]; FP/HEK293-EBNA cells, read-out: inhibition of synthesis of IP3, IC50): 60 nM
agonist activity: synthesis of IP3 when added alone ([3]; tested up to 10 μM, added alone): did not induce any synthesis of IP3
solubility [4, 15]: 0.4 µg/mL (≈ 0.799 µM)
solubility [4, 16]: 10 µg/mL (≈ 20 µM)
solubility [4, 17]: 0.4 µg/mL (≈ 0.799 µM)
passive passage through the Caco-2 monolayer [5]: good passive passage
passage apical to basolateral ([5]; A→B): good percentage of passage
permeability basolateral to apical ([5]; B→A): low rate of permeability
efflux [5]: No efflux was detected
efflux ([5]; listed as compound II): Evidence was not found that compound II might be a substrate for an efflux transporter
Selectivity in panel of 50 receptors, channels and enzymes binding sites [6]: high selectivity for FP
Ki [7]: 6 nM
reduction of spontaneous uterine contractions [8]: 40-50%
intravenous activity compared with atosiban [8]: comparable or slightly higher than that of the tocolytic drug atosiban
stability in HBSS buffer [9]: stable

CC(C)[C@H](N)C(=O)OCC[C@H](NC(=O)[C@@H]1SCCN1S(=O)(=O)c1ccc(-c2ccccc2)cc1)c1ccc(F)cc1 [Compound I, (3S)-3-({[(2S)-3-(biphenyl-4-ylsulfonyl)-1,3-thiazolidin-2-yl]carbonyl}-amino)-3-(4-fluorophenyl)propyl L-valinate]
non-specific binding ([10]; cell-free transwells, 1.5, 3 and 6 μM): excluded
detection in basolateral compartment of cell-free transwell ([10]; cell-free transwells, any dose tested): not detected
solubility [4, 15]: 70 µg/mL (≈ 117 µM)
solubility [4, 16]: 90 µg/mL (≈ 150 µM)
solubility [4, 17]: 380 µg/mL (≈ 634 µM)
compound I in basolateral (receiving) compartment, apical to basolateral ([5]; A→B, 60 and 120 minutes, 1.5, 3 and 6 μM): not detected
compound I in apical (receiving) compartment, basolateral to apical ([5]; B→A, 60 and 120 minutes): not detected
recovery of compound I in apical compartment at end of apical to basolateral experiment ([5]; apical compartment, 120 min): primarily recovered in the form of the de-esterified variant, compound II; also recorded: low recovery
passage through the Caco-2 cell monolayer ([5]; bi-directional permeability test): did not pass through the cell monolayer
PepT1 mediation of transport [11]: likely not mediated by PepT1
compound I passage to receiving compartment after Gly-Sar pre-treatment [11]: not detected
compound I passage to receiving compartment after Gly-Sar pre-treatment ([11]; listed as compound I): no passage
conversion to compound II [12]: rapidly converted to compound II
Ki [7]: 1 nM
reduction of spontaneous uterine contractions [8]: 40-50%
intravenous activity compared with atosiban [8]: comparable or slightly higher than that of the tocolytic drug atosiban
stability in HBSS buffer [9]: stable

CC(C)[C@H](N)C(=O)OCC[C@H](NC(=O)[C@@H]1SCCN1S(=O)(=O)c1ccc(-c2ccccc2)cc1)c1ccc(F)cc1.Cl [Compound III, (3S)-3-({[(2S)-3-(biphenyl-4-ylsulfonyl)-1,3-thiazolidin-2-yl]carbonyl}-amino)-3-(4-fluorophenyl)propyl L-valinate hydrochloride]
solubility [13]: < 1000 µg/mL
deliquescence ([14]; 2 days at approximately 95% RH): did not deliquesce
weight loss upon desorption ([14]; desorption after sorption to 95% RH): approximately 0.7%
weight gain on sorption ([14]; from 5 to 95% relative humidity): Approximately 0.9%
hygroscopicity [14]: low hygroscopicity
hygroscopicity ([14]; listed as chloride salt): non-hygroscopic
hygroscopicity ([14]; listed as hydrochloride salt): low hygroscopicity; also recorded: non-hygroscopic
